Assay results reported in ChEMBL document CHEMBL5030564, “Multifunctional Antibiotic-Host Defense Peptide Conjugate Kills Bacteria, Eradicates Biofilms, and Modulates the Innate Immune Response” (J Med Chem, 2021).
Values after ≈ are worked out from the molar mass of the structure shown. Active and inactive are the calls of the source. The rule behind the calls is not given here. Residues, ends and D or L forms follow the SMILES beside them.

Key:
Staphylococcus aureus [1] = assay: Antimicrobial activity against methicillin-resistant Staphylococcus aureus USA300 LAC assessed as inhibition of bacterial growth incubated for 18 to 20 hrs by broth microdilution assay; type: functional; conditions: MRSA USA300 LAC, time 18-20 hrs
[2] = (§1) Immunomodulatory activity in PBMC (unknown origin) assessed as reduction in LPS-induced IL-1beta level by ELISA; type: functional; set-up: scale not given: the % may be the effect or the level left
Staphylococcus aureus [3] = assay: Antimicrobial activity against methicillin-resistant Staphylococcus aureus SAP 0017 assessed as inhibition of bacterial growth incubated for 18 to 20 hrs by broth microdilution assay; type: functional; conditions: time 18-20 hrs
Enterococcus faecium [4] = assay: Antibiofilm activity against Enterococcus faecium assessed as inhibition of CV-staining/biomass formation measured after overnight incubation by biofilm inhibition assay; type: functional
Staphylococcus aureus [5] = assay: Antibacterial activity against methicillin resistant Staphylococcus aureus USA300 LAC assessed as change in susceptibility at sub-MIC treated over 14 serial passages by resistance development assay; type: functional, organism-based; conditions: MRSA USA300 LAC
Staphylococcus aureus [6] = assay: Antibiofilm activity against methicillin-resistant Staphylococcus aureus SAP 0017 assessed as inhibition of CV-staining/biomass formation measured after overnight incubation by biofilm inhibition assay; type: functional
Staphylococcus aureus [7] = assay: Antibiofilm activity against methicillin-resistant Staphylococcus aureus USA300 LAC assessed as minimal biofilm eradication concentration required for complete inhibition of bacterial growth by Calgary biofilm device assay; type: functional, MRSA USA300 LAC
Staphylococcus aureus [8] = assay: Antibiofilm activity against methicillin-resistant Staphylococcus aureus SAP 0017 assessed as biofilm eradication concentration by Calgary biofilm device assay; type: functional
[9] = tested on: Staphylococcus epidermidis; assay: Antibiofilm activity against Staphylococcus epidermidis ATCC14990 assessed as biofilm eradication concentration by Calgary biofilm device assay; type: functional
Staphylococcus aureus [10] = assay: Antibiofilm activity against methicillin resistant Staphylococcus aureus in N/TERT-based epidermal model assessed as reduction in bacterial clusters by H&E staining based histological analysis; type: functional, organism-based
[11] = Toxicity in Staphylococcus epidermidis infected CD-1 mouse assessed as reduction in abscess size at 2.5 mg/kg, ILES after 3 days; type: organism-based; set-up: scale not given: the % may be the effect or the level left; conditions: in vivo, other, 72 h, time 3 day
Enterococcus faecium [12] = assay: Antibiofilm activity against Enterococcus faecium assessed as biofilm eradication concentration by Calgary biofilm device assay; type: functional
[13] = Cytotoxicity against PBMC (unknown origin) at 100 ug incubated for 24 hrs by lactate dehydrogenase assay; type: tissue-based; conditions: dose 100 µg
Staphylococcus aureus [14] = assay: Antibacterial activity against methicillin-resistant Staphylococcus aureus USA300 LAC assessed as measuring killing rate at 16 ug/ml measured with in 30 mins by time kill assay; type: functional, organism-based; conditions: MRSA USA300 LAC, dose 16.0 µg/ml
Staphylococcus aureus [15] = assay: Antibiofilm activity against methicillin-resistant Staphylococcus aureus USA300 LAC assessed as disruption of mature biofilms by TCC bacterial metabolic assay; type: functional, MRSA USA300 LAC
Staphylococcus aureus [16] = assay: Antibiofilm activity against methicillin-resistant Staphylococcus aureus USA300 LAC assessed as rough surfaces sprinkled with debris at 16 ug/ml by scanning electron microscopy based assay; type: functional, organism-based; conditions: MRSA USA300 LAC, dose 16.0 µg/ml
Staphylococcus aureus [17] = assay: Antimicrobial activity against methicillin resistant Staphylococcus aureus in N/TERT-based epidermal model assessed as reduction in bacterial count in epidermis; type: functional, organism-based
Staphylococcus aureus [18] = assay: Antibiofilm activity against methicillin-resistant Staphylococcus aureus SAP 0017 assessed as disruption of mature biofilms by TCC bacterial metabolic assay; type: functional
[19] = Immunomodulatory activity in PBMC (unknown origin) assessed as reduction in LPS-induced IL-10 level by ELISA; type: functional; set-up: scale not given: the % may be the effect or the level left
[20] = tested on: Staphylococcus epidermidis; assay: Antimicrobial activity against Staphylococcus epidermidis ATCC14990 assessed as inhibition of bacterial growth incubated for 18 to 20 hrs by broth microdilution assay; type: functional; conditions: time 18-20 hrs
PBMC [21] = assay: Immunomodulatory activity in PBMC (unknown origin) assessed as increase in MCP-1 production level at 12.5 ug/ml incubated for 24 hrs by ELISA; type: functional, tissue-based; conditions: dose 12.5 µg/ml
[22] = tested on: Staphylococcus epidermidis; assay: Antibiofilm activity against Staphylococcus epidermidis ATCC14990 assessed as inhibition of CV-staining/biomass formation measured after overnight incubation by biofilm inhibition assay; type: functional
Enterococcus faecium [23] = assay: Antimicrobial activity against Enterococcus faecium assessed as inhibition of bacterial growth incubated for 18 to 20 hrs by broth microdilution assay; type: functional; conditions: time 18-20 hrs
[24] = tested on: Staphylococcus epidermidis; assay: Antibiofilm activity against Staphylococcus epidermidis ATCC14990 assessed as disruption of mature biofilms by TCC bacterial metabolic assay; type: functional
[25] = Toxicity in methicillin resistant Staphylococcus aureus USA300 infected CD-1 mouse assessed as reduction in bacterial load at 2.5 mg/kg, ILES after 3 days; type: organism-based; conditions: in vivo, other, 72 h, time 3 day
Enterococcus faecium [26] = assay: Antibiofilm activity against Enterococcus faecium assessed as reduction in viable biofilm cell counts by TCC bacterial metabolic assay; type: functional, organism-based
Staphylococcus aureus [27] = assay: Antibiofilm activity against methicillin-resistant Staphylococcus aureus USA300 LAC assessed as inhibition of CV-staining/biomass formation measured after overnight incubation by biofilm inhibition assay; type: functional, MRSA USA300 LAC
Staphylococcus aureus [28] = assay: Antibiofilm activity against methicillin-resistant Staphylococcus aureus USA300 LAC assessed as killing biofilm cells at 16 ug/ml incubated for 4 hrs after SYTO9/PI staining by confocal microscopy; type: functional, MRSA USA300 LAC; conditions: dose 16 µg/ml
[29] = Toxicity in Staphylococcus epidermidis infected CD-1 mouse assessed as reduction in bacterial load at 2.5 mg/kg, ILES after 3 days; type: organism-based; conditions: in vivo, other, 72 h, time 3 day
Staphylococcus aureus [30] = assay: Antibiofilm activity against methicillin resistant Staphylococcus aureus-lux biofilm in N/TERT-based epidermal model assessed as reduction in luminescence treated at 300 ug/ml topically incubated for 4 hrs by ChemiDoc imaging system; type: functional, organism-based; conditions: dose 300.0 µg/ml
PBMC [31] = assay: as §1; type: functional
[32] = Toxicity in Staphylococcus epidermidis infected CD-1 mouse assessed as reduction in bacterial load at 0.25 mg/kg, ILES after 3 days; type: organism-based; conditions: in vivo, other, 72 h, time 3 day
[33] = Toxicity in methicillin resistant Staphylococcus aureus USA300 infected CD-1 mouse assessed as reduction in bacterial load at 0.25 mg/kg, ILES after 3 days; type: organism-based; conditions: in vivo, other, 72 h, time 3 day

| Structure (SMILES) | MIC (Staphylococcus aureus [1]) [µg/mL] | Activity [2] [%] | MIC (Staphylococcus aureus [3]) [µg/mL] | MBIC (Enterococcus faecium [4]) [µg/mL] | MBIC (Staphylococcus aureus [6]) [µg/mL] | MBEC (Staphylococcus aureus [7]) [µg/mL] | MBEC (Staphylococcus aureus [8]) [µg/mL] | MBEC [9] [µg/mL] | Activity (Staphylococcus aureus [10]) | MBEC (Enterococcus faecium [12]) [µg/mL] | Activity [19] [%] | MIC [20] [µg/mL] | MBIC [22] [µg/mL] | MIC (Enterococcus faecium [23]) [µg/mL] | MBIC (Staphylococcus aureus [27]) [µg/mL] | Activity (Staphylococcus aureus [28]) [%] | Activity (Staphylococcus aureus [30]) | also measured |
| --- | --- | --- | --- | --- | --- | --- | --- | --- | --- | --- | --- | --- | --- | --- | --- | --- | --- | --- |
| CC[C@H](C)[C@H](NC(=O)[C@H](CCCNC(=N)N)NC(=O)[C@@H](NC(=O)[C@H](C)NC(=O)[C@@H](NC(=O)[C@@H](NC(=O)[C@H](CC(C)C)NC(=O)[C@H](CCCNC(=N)N)NC(=O)[C@@H](NC(=O)[C@H]1NC(=O)[C@H]2NC(=O)[C@H](NC(=O)[C@@H]3NC(=O)[C@H](CC(N)=O)NC(=O)[C@H](NC(=O)[C@@H](CC(C)C)NC)[C@H](O)c4ccc(c(Cl)c4)Oc4cc3cc(c4O[C@@H]3O[C@H](CO)[C@@H](O)[C@H](O)[C@H]3O[C@H]3C[C@](C)(N)[C@H](O)[C@H](C)O3)Oc3ccc(cc3Cl)[C@H]2O)c2ccc(O)c(c2)-c2c(O)cc(O)cc21)C(C)C)[C@@H](C)CC)C(C)C)C(C)C)C(=O)N[C@@H](Cc1c[nH]c2ccccc12)C(=O)N[C@@H](CCCNC(=N)N)C(=O)N[C@@H](CCCNC(=N)N)C(N)=O | 4 (≈ 1.35 µM) | 40 | 4 (≈ 1.35 µM) | 32 | 4 | 8 | 8 | 8 | Active | 64 | 40 | 4 (≈ 1.35 µM) | 8 | 32 (≈ 10.8 µM) | 4 | >90 | Active | Activity (Staphylococcus aureus [5]): inactive; Activity [11]: 90%; Activity [13]: Non-Toxic; Activity (Staphylococcus aureus [14]): Active; Activity (Staphylococcus aureus [15]): 80%; Activity (Staphylococcus aureus [16]): Active; Activity (Staphylococcus aureus [17]): Active; Activity (Staphylococcus aureus [18]): 80%; Activity (PBMC [21]): Active; Activity [24]: 80%; Activity [25]: Non-Toxic; Activity (Enterococcus faecium [26]): inactive; Activity [29]: Non-Toxic |
| CC[C@H](C)[C@H](NC(=O)[C@H](CCCNC(=N)N)NC(=O)[C@@H](NC(=O)[C@H](C)NC(=O)[C@@H](NC(=O)[C@@H](NC(=O)[C@H](CC(C)C)NC(=O)[C@H](CCCNC(=N)N)NC(=O)[C@@H](N)C(C)C)[C@@H](C)CC)C(C)C)C(C)C)C(=O)N[C@@H](Cc1c[nH]c2ccccc12)C(=O)N[C@@H](CCCNC(=N)N)C(=O)N[C@@H](CCCNC(=N)N)C(N)=O (H-VRLIVAVRIWRR-NH2) | 16 (≈ 10.4 µM) | 40 | 16 (≈ 10.4 µM) | >64 | – | – | – | 16 | inactive | >128 | – | 16 (≈ 10.4 µM) | 16 | > 64 | – | >75 | Active | fold change (FC) [29]: > 1000 |
| CCCCCCCCCCCCCCCC[N+](C)(C)Cc1ccccc1.[Cl-] [CETALKONIUM CHLORIDE] | 2 | – | 2 | >64 | 4 | 8 | – | 16 | – | >128 | – | 4 | 4 | > 64 | 4 | – | – | – |
| CN[C@H](CC(C)C)C(=O)N[C@H]1C(=O)N[C@@H](CC(N)=O)C(=O)N[C@H]2C(=O)N[C@H]3C(=O)N[C@H](C(=O)N[C@H](C(=O)O)c4cc(O)cc(O)c4-c4cc3ccc4O)[C@H](O)c3ccc(c(Cl)c3)Oc3cc2cc(c3O[C@@H]2O[C@H](CO)[C@@H](O)[C@H](O)[C@H]2O[C@H]2C[C@](C)(N)[C@H](O)[C@H](C)O2)Oc2ccc(cc2Cl)[C@H]1O [VANCOMYCIN] | – | – | – | >128 | 2 | >128 | >128 | >128 | inactive | >128 | 5 | – | 2 | > 128 | 2 | <25 | Active | Activity (PBMC [31]): inactive; Activity [32]: Non-Toxic; Activity [33]: Non-Toxic |
